The results in this text go back to paper PMC6851181 (Scientific Reports, 2019).

SMILES strings stand for the structures. Read-outs that look alike come from different tables or passages of the source.

Series [1] in a line: Stability of IF in the plasma of mouse under various storage conditions (HPLC). In kind it is in vitro ADME. To be noted: n = 3. How it is done:
The short-term stability was determined after the exposure of the spiked samples to room temperature for 24 h. The long-term stability was evaluated after storage of the standard spiked plasma samples at −70 °C for 30 days. The freeze/thaw cycle stability was assessed after two complete freeze/thaw cycles (−70 to 25 °C) on consecutive days. The analytes were considered to be stable in plasma when 85–115% of the initial concentrations were found.
Chromatography conditions for the study were as follows: the mobile phase consisted of acetonitrile, potassium phosphate buffer 0.025 M at pH 4.0, and triethylamine (12:88:0.025, v/v) with a final pH of 6.2. The flow-rate was 1.2 mL/min. The analytical column was operated at ambient temperature. The HPLC system consisted of a Beckman System Gold, 128 Solvent Module with ultra-violet detection at 200 nm. We used a 3.5 μm Xterra RP-8 (4.6 × 150 mm) column. Data were collected by the HPLC system and transferred to a Dell Pentium computer.

The nature of series [2]: Mouse IF pharmacokinetic study: plasma IF by HPLC, alone or after GFJ or naringin pre-administration. Type of series: in vivo, ICR male mice. How it is done:
For the study, 7 groups with 12 animals each were intragastrically (ig) administered with 300 mg/kg of IF. Then, we obtained 1 mL of blood by cardiac puncture at 2.5, 5, 7.5, 10, 20, 30, and 60 min post-administration.
Blood samples were immediately centrifuged at 3500 rpm. Aliquots of 250 µL were stored at −70 °C until the quantification of IF plasmatic concentrations was carried out.
Besides in our research, 7 groups with 12 animals each were ig administered with naringin (250 mg/kg) to evaluate its influence on the concentration/time profiles of IF, a chemical that was ig administered 60 min later (300 mg/kg). Seven other groups were ig administered GFJ (20.8 µL/g) and 60 min later ig treated with 300 mg/kg of IF. In both assays, we obtained blood samples at 2.5, 5, 7.5, 10, 20, 30, and 60 min post-administration. With the indicated design we examined the influence of GFJ or naringin on the concentration/time profiles of IF.
For the blood treatment, after thawing, we added 250 μL of the internal standard (CF) to each sample, after which the plasma was deproteinized with methanol 1:1.5 (plasma-methanol), and centrifuged at 3500 rpm for 10 min. Subsequently, we transferred 450 μL of the supernatant to an Eppendorf tube containing 550 μL of phosphate buffer 0.01 N, pH 4.0. The solution was activated with 1 mL of methanol plus 1 mL of phosphate buffer 0.01 N, pH 4.0, and loaded to a Bond Elut-CH cartridge under reduced pressure. The cartridge was washed with 1 mL of acetonitrile plus phosphate buffer 0.01 N, pH 4.0 (10–90%) and it was eluted with 500 μL of acetonitrile plus phosphate buffer 0.025 N, pH 4.0 (40–60%). A volume of 20 μL were injected in the stabilized HPLC system.
The pharmacokinetic parameters of IF and their interaction with naringin or GFJ were calculated by non-compartmental assessment of data using the computer program WinNonlin (V4.0, Pharsight, Mountain View, CA, USA). The maximum plasma concentrations (Cmax) and their time of occurrence (Tmax) were both obtained directly from the measured data. The area under the plasma concentration-time curve, from time zero to the time of the last measurable concentration (AUC0-t) was calculated with the linear trapezoidal method. AUC0-∞ was calculated AUC0-t + Ct/λz, where Ct is the last measurable concentration and λz the constant rate of terminal elimination. The corresponding half-life elimination (t1/2) was then calculated as 0.693/λz. The results corresponding to Cmax were statistically analyzed with the ANOVA and the Student-Newman-Keuls tests. With respect to AUC0-t, Tmax, and t1/2 the analysis was made with the Kruskal-Wallis test.

[3] abbreviates: IF only, 300 mg/kg ig, mouse plasma, 300 mg/kg.
Where [4] appears, read: male, ICR, mouse, plasma, po, 300 mg/kg, GFJ 20.8 µL/g ig 1 h before IF 300 mg/kg ig, mouse plasma.
[5] abbreviates: male, ICR, mouse, plasma, po, 300 mg/kg, IF only, 300 mg/kg ig, mouse plasma.
[6] abbreviates: male, ICR, mouse, plasma, po, 300 mg/kg, naringin 250 mg/kg ig 1 h before IF 300 mg/kg ig, mouse plasma.

For the compound `O=P1(NCCCl)OCCCN1CCCl` (stereo not drawn) [IF, ifosfamide], the Concentration found in series [1] (freeze and thaw stability (−70 to 25 °C), two cycles, added 90 μg/mL) turned out to be 81.34 ± 4.99 µg/mL; in series [1] (long-term (30 days, −70 °C), added 90 μg/mL), 108.34 ± 1.64 µg/mL; in series [1] (short-term (24 h, 25 °C), added 10 μg/mL) it was 12.31 ± 0.68 µg/mL; in series [1] (short-term (24 h, 25 °C), added 90 μg/mL) it was 100.11 ± 14.27 µg/mL. Also, the Cmax is 71.35 ± 3.57^a♣ μg/mL in series [2] (GFJ 20.8 µL/g ig 1 h before IF 300 mg/kg ig, mouse plasma); 58080 ± 5010 ng/mL in series [2] (setting [3]); 71300 ng/mL in series [2] (male, ICR, mouse, plasma, po, 300 mg/kg, GFJ 20.8 µL/g ig 1 h before IF 300 mg/kg ig, mouse plasma, read-out: Cmax); 58100 ng/mL in series [2] (male, ICR, mouse, plasma, po, 300 mg/kg, IF only, 300 mg/kg ig, mouse plasma, read-out: Cmax); 64100 ± 4370 ng/mL in series [2] (male, ICR, mouse, plasma, po, 300 mg/kg, naringin 250 mg/kg ig 1 h before IF 300 mg/kg ig, mouse plasma, read-out: Cmax); 64100 ng/mL in series [2] (male, ICR, mouse, plasma, po, naringin 250 mg/kg ig 1 h before IF 300 mg/kg ig, mouse plasma, read-out: Cmax). Further, the “AUC0−∞” value in series [2] (setting [3]) came out at 2110.36 ± 114.98 µg·min/mL. Further, the Tmax was 10.83 ± 1.28 min in series [2] (setting [3]); 8.7 min in series [2] (male, ICR, mouse, plasma, po, 300 mg/kg, GFJ 20.8 µL/g ig 1 h before IF 300 mg/kg ig, mouse plasma, read-out: Tmax (converted)); 10.8 min in series [2] (male, ICR, mouse, plasma, po, 300 mg/kg, IF only, 300 mg/kg ig, mouse plasma, read-out: Tmax (converted)); 5 min in series [2] (male, ICR, mouse, plasma, po, 300 mg/kg, naringin 250 mg/kg ig 1 h before IF 300 mg/kg ig, mouse plasma, read-out: Tmax (converted)). The compound further showed a t1/2 in series [2] (setting [3]) of 23.55 ± 1.86 min. Also, the AUC(0-inf) was 34200 ng·h/mL in series [2] (setting [4]), 35200 ng·h/mL in series [2] (setting [5]) and 37400 ng·h/mL in series [2] (setting [6]). Further, the half-life in series [2] (setting [4]) turned out to be 16.5 ± 1.43 min; in series [2] (setting [5]) it was 23.5 min; in series [2] (setting [6]), 26.8 ± 3.77 min.

Regarding `C[C@@H]1O[C@@H](O[C@H]2[C@H](Oc3cc(O)c4c(c3)O[C@H](c3ccc(O)cc3)CC4=O)O[C@H](CO)[C@@H](O)[C@@H]2O)[C@H](O)[C@H](O)[C@H]1O` [naringin, 4′,5,5-trihdroxy-flavanone-7-rhamnoglucoside], the “Change of half-life (t1/2) of IF with respect to IF alone” value in series [2] (naringin 250 mg/kg ig 1 h before IF 300 mg/kg ig, mouse) is “no change”. In series [2] (naringin 250 mg/kg or GFJ 20.8 µL/g ig 1 h before IF 300 mg/kg ig, mouse), the “Difference of AUC0−∞ of IF with respect to IF alone” value was “no statistical difference”.
